Test results as given in article PMC7848861 (Frontiers in Microbiology, 2021).
Peptide text beside a SMILES is read from it.

Legend:
[1] = system: primary human macrophages; assay: Toxicity of peptides against macrophages (PrestoBlue); assay type: cell-based; conditions: three independent experiments
Description: Human peripheral blood mononuclear cells (PBMC) were isolated by density gradient centrifugation (Ficoll-Paque™ Plus; GE Healthcare) of buffy coat preparations from anonymous donors (Institute of Transfusion Medicine, Ulm University). Monocytes were isolated from PBMCs by adherence on tissue culture treated plastic flasks (Falcon, Corning, NY, United States). Monocyte-derived macrophages were generated by incubation with granulocyte-macrophage colony-stimulating factor (10 ng/ml; Miltenyi Biotec, Bergisch Gladbach, Germany) in Macrophage-Serum Free Medium (M-SFM; Gibco, ThermoFisher Scientific, Schwerte, Germany) for 6 days.
About 1 × 10^5 macrophages were incubated with peptides for 18 h in a 96-well plate, followed by addition of 10% PrestoBlue™ (Thermo Fisher) for 20 min. The non-fluorescent resazurin-based PrestoBlue is reduced to fluorescent resorufin by mitochondrial enzymes of viable cells ([Xu et al., 2015]). The fluorescence intensity (FI) was measured at λex 560 nm and λem 600 nm using Infinite 200 PRO (Tecan, Männedorf, Suisse) plate reader. Cell viability (%) was calculated using the following formula where the ratio of the FIs of the sample and the untreated control is calculated after subtracting the background FI introduced by the same volume of cell culture medium: [FI (sample)-FI (background)]/[FI (untreated control)-FI (background)] × 100.

[2] = system: primary human monocytes or macrophages; assay: Chemotaxis or cytokine release by monocytes or macrophages (not shown); assay type: cell-based; conditions: data not shown
[3] = system: intracellular Mtb in primary human macrophages; assay type: cell-based, Mycobacterium tuberculosis; conditions: 10 μM, 4 days, MOI 5, CFU on 7H11 after 21 days; diluent control 9.5-fold; p < 0.05; six donors
[4] = system: Mycobacterium tuberculosis H37Rv (extracellular Mtb); assay type: cell-based; conditions: 100 μM peptide; 2 × 10^6 Mtb, 96 h incubation, 3H-Uracil uptake vs untreated control; mean ± SD, triplicates of three independent experiments
human macrophages = assay: Uptake by macrophages (flow cytometry, confocal laser microscopy); assay type: cell-based; conditions: Atto647N-labeled peptide, 54 μM, 18 h, alone or incorporated into liposomes; flow cytometry and confocal microscopy, three donors
Description: For investigation of Angie1 internalization, 1 × 10^6 macrophages were incubated with Angie1-Atto647N or Angie1-Atto647N Lip for 18 h. Samples were then analyzed using a FACS Calibur (BD Biosciences) with FlowJo v10.4.1 (BD). For confocal laser microscopy, 0.1 × 10^6 macrophages were seeded in 200 μl M-SFM in an eight-chamber slide (Thermo Fisher) and incubated with Angie1-Atto 647 N (54 μM) or Angie1-Atto 647 N Lip (54 μM) or Angiogenin-Atto647N Lip. After overnight incubation, cells were fixed (4% PFA, Sigma-Aldrich), followed by blocking in 2% BSA. Subsequently macrophages were labeled with major histocompatibility antigen class II antibodies (HLA-DR; 1:200, clone L243, Leinco, St. Louis, MS, United States) detected by Cy2-conjugated goat anti-mouse antibodies (1:200, Dianova, Hamburg, Germany). Cell nuclei were stained with DAPI (1:200, Sigma-Aldrich) diluted in 1% BSA and 0.1% Triton X-100 in PBS (all Sigma-Aldrich). Images were acquired using the inverted laser scanning confocal microscope LSM 710 (Zeiss, Oberkochen, Germany). Image processing was performed using ImageJ software (v 1.52c).

zebrafish embryos = assay: Toxicity against zebrafish embryos; assay type: in vivo; conditions: 1, 10, and 100 μM, exposure 24 h from 24 hpf, scored at 48 hpf, n = 60 embryos each group
Description: Wild-type zebrafish embryos were dechorionated at 24 h post fertilization (hpf) using digestion with 1 mg/ml pronase (Sigma) in E3 medium (83 μM NaCl, 2.8 μM KCl, 5.5 μM CaCl2, and 5.5 μM MgSO4). Embryos were exposed for 24 h, in groups of three, to 100 μl of E3 medium containing Angie1 at 1, 10, and 100 μM. Each concentration was tested in two independent assays, each of which was performed on 10 × 3 embryos. The peptide solvent (PBS), diluted in E3, was used as negative control at the same amount as introduced by the highest peptide concentration. As positive control for acute toxicity/cytotoxicity the pleurocidin antimicrobial peptide NRC-03 ([…]-[…]-NH2) was used at a concentration of 6 μM as described ([Morash et al., 2011]). Abamectin at a concentration of 3.125 μM was used as positive control for neurotoxicity ([Raftery et al., 2014]). At 48 hpf (after 24 h of incubation) embryos were scored in a stereomicroscope for signs of acute toxicity/cytotoxicity (lysis and/or necrosis), developmental toxicity (delay and/or malformations), or cardiotoxicity (heart edema and/or reduced or absent circulation). Each embryo was also touched with a needle and reduced or absent touch response (escape movements) was evaluated as signs of neurotoxicity if and only if no signs of acute toxicity were present in the same embryo. […]

Solubility in water = assay type: physicochemical
[5] = Half-life of Angie1 in human serum; assay type: in vitro ADME; conditions: human serum (Lonza 14-490E) spiked with 10 μM, 37°C, aliquots 5–120 min, LC-MS (Orbitrap Elite) signal area, triplicates, GraphPad Prism
Description: Human serum (14-490E, Lonza, Basel, Switzerland) was spiked with 10 μM Angie1 and incubated at 37°C for 2 h in triplicates. After 5, 10, 20, 30, 45, 60, 90, and 120 min; aliquots (5 μl) were diluted with 1.5 ml ice cold TFA (0.1%). Around 15 μl of each sample was analyzed using an Orbitrap Elite system (Thermo Fisher Scientific) as described above. XCalibur Qual Browser (Thermo Fisher Scientific) was used for visualization of the total ion chromatograms and spectra, as well as for signal area calculation. The theoretical spectrum of Angie1 and its degradation products were generated and the highest intensity signals were used as reference for detecting Angie1 and its degradation products. Plot graphs (signal area vs. time) and half-lives were calculated with GraphPad Prism 8.0 (GraphPad, La Jolla, CA, United States).

Molecule	Viability of macrophages ([1]; Angiogenin 10 μM, 18 h (legend: 24 h), PrestoBlue resazurin metabolism)	Induction of chemotaxis or cytokine release [2]	Multiplication of intracellular Mtb (n-fold growth d4 vs d0) [3] [fold]	Antimicrobial activity against extracellular Mtb [4] [%]	Toxicity for primary human macrophages ([1]; Angie1 at 27, 54, or 108 μM, PrestoBlue, 24 h)	Uptake by macrophages (human macrophages)	Toxicity to zebrafish embryos (acute/cyto-, cardio-, developmental, neurotoxicity) (zebrafish embryos)	Solubility in water (Solubility in water)	Half-life in human serum [5] [min]	half-life at 10 μM [5] [min]
Angiogenin: endogenous 123 amino acid, 14.1 kDa protein identified in hemofiltrate; tested as synthetic Angiogenin	did not affect the viability	do not induce chemotaxis or cytokine release	5.2	94 ± 2						
CC[C@H](C)[C@H](NC(=O)[C@H](C)NC(=O)[C@H](CCCCN)NC(=O)[C@@H](NC(=O)[C@H](CO)NC(=O)[C@@H](NC(=O)[C@H](CCCCN)NC(=O)[C@H](CC(N)=O)NC(=O)CNC(=O)[C@H](Cc1c[nH]cn1)NC(=O)[C@@H](NC(=O)[C@H](Cc1ccccc1)NC(=O)[C@@H](NC(=O)[C@H](CC(N)=O)NC(=O)[C@@H](NC(=O)[C@H](C)NC(=O)[C@@H](N)CCCCN)[C@@H](C)CC)[C@@H](C)O)[C@@H](C)CC)[C@@H](C)CC)[C@@H](C)CC)C(=O)O [Angie1] (H-KAINTFIHGNKISIKAI-OH)					not toxic	equally efficient	no toxicity	soluble in water	3	3.06
